Like-named read-outs stand apart in the source and are kept apart here.
Columns and labels:
[1] = biological target: N-methyl-D-aspartate (NMDA) receptors ([3H]-MK-801 binding); experiment: Displacement of [3H]-MK-801 binding, crude synaptosomal membrane fraction (P2) from rat cerebral cortex; details: displacement of [3H]-MK-801, rat cerebral cortex membranes
Protocol: The compounds useful in the novel method of treatment of this invention bind with a high affinity and in a reversible and saturable manner to membranes from rat brain cortex. In addition these useful compounds potently and selectively block responses to NMDA in a brain slice from rate cortex, the antagonism apparently being non-competitive.
Binding of [^3 H]-MK-801 to rat brain in vitro was conducted in a crude synaptosomal membrane fraction (P2) prepared from rat cerebral cortex according to a modified method of Hulme et al, Molecular Pharmocology 14, 737-750 (1978).

[2] = test system: NMDA responses of cortical neurons (NMDA receptor); experiment: Rat cortical slice, responses to NMDA; assay type: cell-based; details: read-out: Apparent Potency as NMDA Antagonist Kb
Protocol: (§1) The effects of MK-801 and its analogs on responses to NMDA and quisqualate were assessed using the rat cortical slice as described by Harrison et al., Brit. J. Pharmacol, 84, 381-391 (1985). Cortical neurons in this preparation are depolarized by bath applications of NMDA. MK-801 produces a dose dependent depression of NMDA responses with a threshold dose of about 100 nM and complete suppression of responses at 1 μM.
The apparent potencies of MK-801 and its analogs are shown in Table IV; they correlate closely with results from [^3 H]-MK-801 binding studies.

[3] = test system: gerbil hippocampus calcium levels; experiment: Prevention of increases in calcium levels in gerbil hippocampus following bilateral artery occlusion; assay type: in vivo
Source text: (d) The neuroprotective activity of compounds for use in accordance with the invention has also been determined by measuring the ability of the compounds to prevent increases in calcium levels in the gerbil hippocampus following bilateral artery occlusion.

[4] = test system: gerbils (neuronal damage in the hippocampus); experiment: Gerbil right carotid artery occlusion 10 minutes, repeated MK-801 dosing, neuronal damage in hippocampus; assay type: in vivo; details: 1 mg/kg i.p. one hour before, then 1, 3, 5, 10 and 15 hours following 10 min occlusion
Protocol: (b) The right carotid artery of gerbils was occluded for 10 minutes and MK-801 at a dose of 1 mg/kg (i.p.) administered one hour before, then 1, 3, 5, 10 and 15 hours following occlusion. The animals were allowed to survive for 4 days and the extent of neuronal damage in the hippocampus was assessed.

[5] = test system: gerbils (neuronal degeneration in the hippocampus); experiment: Gerbil ischaemia, 5 minute occlusion of both carotid arteries, neuronal degeneration in hippocampus; assay type: in vivo
Protocol: (c) Ischaemia was induced in gerbils by 5 minute occlusion of both carotid arteries. Restoration of blood flow after occlusion was checked visually and the animals allowed to survive for 4 days. The extent of neuronal degeneration in the hippocampus was measured. Test animals were treated by administering MK-801 at doses of 1, 3 and 10 mg/kg (i.p.) one hour prior to occlusion.

[6] = test system: gerbils (neuronal degeneration in the hippocampus); experiment: Gerbil ischaemia, 10 minute unilateral carotid artery occlusion, neuronal degeneration in hippocampus; assay type: in vivo; details: 10 min occlusion
Protocol: (§2) (a) Ischaemia was induced in gerbils by 10 or 30 minute unilateral occlusion of the carotid artery. Restoration of blood flow after occlusion was checked visually and the animals were allowed to survive for 4 days. The extent of neuronal degeneration in the hippocampus was assessed. Test animals were treated by administering MK-801 at doses of 1 and 10 mg/kg (i.p.) one hour prior to artery occulsion.

[7] = test system: gerbils; experiment: Gerbil ischaemia, 30 minute unilateral carotid artery occlusion, survival; assay type: in vivo; details: 30 min occlusion
Protocol: as §2

[8] = test system: NMDA receptor mediated events on central neurons; experiment: Cortical slices from rats pretreated with MK-801, responses to NMDA; assay type: in vivo, rat; details: slices from rats pretreated 1 mg/kg i.p. 2 hours before sacrifice, vs untreated animals
Protocol: (§3) The responses to NMDA and quisqualate were examined on cortical slices from 4 rats which had been pretreated with MK-801 (1 mg/kg, i.p) 2 hours before they were sacrificed. Responses to NMDA were markedly depressed resulting in a shift to the right of the NMDA dose-response curve of approximately 2.4 fold when compared to the mean NMDA dose-response curved from untreated animals.

[9] = test system: responses to quisqualate; experiment: Cortical slices from rats pretreated with MK-801, responses to quisqualate; assay type: in vivo, rat; details: slices from rats pretreated 1 mg/kg i.p. 2 hours before sacrifice
Protocol: as §3

[10] = test system: responses to kainate; experiment: Rat cortical slice, responses to kainate; assay type: cell-based; details: doses of up to 30 μM
[11] = test system: responses to quisqualate; experiment: Rat cortical slice, responses to quisqualate; assay type: cell-based; details: doses of up to 30 μM
Protocol: as §1

[12] = Table I, read-out: Displacement potencies Ki
[13] = Table II, read-out: Displacement potencies Ki

| Structure (SMILES) | Kb [2] | Ki [1, 12] | further results |
| --- | --- | --- | --- |
| CN1C2(C)c3ccccc3C1(C)c1ccccc12 [L-627,891] | 1130 nM |  | Ki ([1]; Table III, read-out: Ki): 220 nM |
| CN1C2Cc3ccccc3C1(C)c1ccccc12 [L-645,114] |  | 509 nM |  |
| COc1ccc2c(c1)C1Cc3ccccc3C2(C)N1 [L-641,086] |  | 40 nM |  |
| CC12NC(Cc3ccccc31)Cc1ccccc12 [L-638,204] | 310 nM |  | Ki [1, 13]: 140 nM |
| CCCC12NC(Cc3ccccc31)c1ccccc12 [L-639,470] | 3000 nM | 8600 nM |  |
| CN1C2(C)c3ccccc3C1(C)c1cc(C#N)ccc12 [L-633,239] |  |  | Ki ([1]; Table III, read-out: Ki): 31300 nM |
| Clc1ccc2c(c1)C1NC(Cc3ccccc31)C2 [L-639,450] |  |  | Ki [1, 13]: 150 nM |
| CC12c3ccccc3CC(c3ccccc31)N2CCO [L-641,042] |  | 12800 nM |  |
| CN1C2(C)Cc3ccccc3C1(C)c1ccccc12 [L-640,688] | 870 nM | 710 nM |  |
| CCC12NC(Cc3ccccc31)c1ccccc12 [L-639,057] | 500 nM | 50 nM |  |
| CC12NC(Cc3ccccc31)c1ccc(Br)cc12 [L-639,442] | 400 nM | 180 nM |  |
| CC12NC(Cc3ccccc31)c1ccccc12 (single isomer, unassigned) [L-640,690] | 300 nM | 320 nM |  |
| CCC12NC(Cc3ccccc31)Cc1ccccc12 [L-639,420] | 200 nM |  | Ki [1, 13]: 120 nM |
| CC12NC(Cc3ccccc31)c1cc(O)ccc12 [L-641,285] | 100 nM | 50 nM |  |
| CN1C2Cc3ccccc3C1c1ccccc12 [L-638,276] |  | 11900 nM |  |
| CC12NC(Cc3ccccc31)c1ccc(O)cc12 [L-665,039] | 130 nM | 20 nM | Depression of Hippocampal [Ca^2+] Relative Potency (MK-801 = 1) [3]: 0.8 |
| CN1C2Cc3ccccc3C1(C)c1ccccc1C2 [L-637,686] | 2000 nM |  | Ki [1, 13]: 1200 nM |

| Structure (SMILES) | Kb [2] | Ki [1, 12] | further results |
| --- | --- | --- | --- |
| CC12NC(Cc3ccccc31)c1ccccc12 (single isomer, unassigned) [L-640,689, 5-methyl-10,11-dihydro-5H-dibenzo[a,d]cyclohepten-5,10-imine] |  | 40 nM | Number of animals showing damage [4]: 1; Number undamaged [4]: 8; Percentage of animals with full protection ([5]; 1 mg/kg i.p. one hour prior to 5 min bilateral occlusion): 60; Percentage of animals with full protection ([5]; 3 mg/kg i.p. one hour prior to 5 min bilateral occlusion): 80; Percentage of animals with full protection ([5]; 10 mg/kg i.p. one hour prior to 5 min bilateral occlusion): 70; ED50 ([3]; Meriones unguiculatus, read-out: Depression of Hippocampal [Ca^2+] IC50): ~0.1 mg/kg; Number of animals showing damage ([6]; 1 mg/kg i.p. one hour prior): 4; Number undamaged ([6]; 1 mg/kg i.p. one hour prior): 11; Number of animals showing damage ([6]; 10 mg/kg i.p. one hour prior): 3; Number undamaged ([6]; 10 mg/kg i.p. one hour prior): 12; Number dead ([7]; 1 mg/kg i.p. one hour prior): 4; Number of animals surviving ([7]; 1 mg/kg i.p. one hour prior): 11; Number dead ([7]; 10 mg/kg i.p. one hour prior): 1; Number of animals surviving ([7]; 10 mg/kg i.p. one hour prior): 14; shift to the right of the NMDA dose-response curve [8]: approximately 2.4 fold; effect on responses to quisqualate [9]: much less affected with only the highest dose slightly depressed; effect on responses to kainate [10]: totally unaffected; effect on responses to quisqualate [11]: totally unaffected |
| C=CCN1C2Cc3ccccc3C1(C)c1ccccc12 [L-639,015] | 3100 nM | 3400 nM |  |
| CC12c3ccccc3C(C)(c3ccccc31)N2C1CC1 [L-632,938] | 640 nM |  | Ki ([1]; Table III, read-out: Ki): 4000 nM |
| CC12NC(Cc3ccccc31)c1ccc(Cl)cc12 [L-641,368] | 1000 nM | 80 nM |  |
| CCCN1C2Cc3ccccc3C1(C)c1ccccc12 [L-645,156] |  | 450 nM |  |
| CC12NC(Cc3ccc(Br)cc31)c1ccccc12 [L-639,441] | 1000 nM | 20 nM |  |
| OCCC12NC(Cc3ccccc31)c1ccccc12 [L-639,902] | 200 nM | 260 nM |  |
| CC12NC(Cc3ccccc31)c1ccccc12 [L-637,939] | 90 nM | 560 nM |  |
| CC12NC(Cc3cc(O)ccc31)c1ccccc12 [L-641,291] | 510 nM | 340 nM | Depression of Hippocampal [Ca^2+] Relative Potency (MK-801 = 1) [3]: 1 |
| CC12NC(Cc3ccc(Cl)cc31)c1ccccc12 [L-641,294] | 50 nM | 10 nM |  |
| CCCN1C2(C)c3ccccc3C1(C)c1ccccc12 [L-633,170] | 300 nM |  | Ki ([1]; Table III, read-out: Ki): 350 nM |
| CN1C2(C)c3ccccc3C1(C)c1cc(C(F)(F)F)ccc12 [L-631,922] |  |  | Ki ([1]; Table III, read-out: Ki): 109000 nM |
| CN1C2Cc3ccccc3C1(C)c1ccccc12 [L-638,275] |  | 830 nM |  |
| CCCCN1C2(C)c3ccccc3C1(C)c1ccccc12 [L-633,744] | 470 nM |  | Ki ([1]; Table III, read-out: Ki): 390 nM |
| COc1ccc2c(c1)CC1NC2(C)c2ccccc21 [L-641,074] |  | 605 nM |  |
| CN1C2c3ccccc3C1(C)c1ccccc12 [L-631,876] |  |  | Ki ([1]; Table III, read-out: Ki): 6930 nM |
